Test results reported in ChEMBL document CHEMBL4382200, “Discovery of Novel 7-Aryl 7-Deazapurine 3'-Deoxy-ribofuranosyl Nucleosides with Potent Activity against Trypanosoma cruzi” (J Med Chem, 2018).
Activity calls are given as the source filed them. The rule behind the calls is not given here.

Legend:
[1] = test system: Trypanosoma cruzi; test: Trypanocidal activity against Trypanosoma cruzi Y strain intracellular amastigotes infected in mouse cardiac cells assessed as parasite death after 168 hrs by Giemsa-staining based assay; assay type: functional, organism-based
[2] = test system: CYP450; test: Drug metabolism in dog liver microsome S9 fraction assessed as CYP450-mediated metabolism by measuring compound remaining at 5 uM pretreated with NADPH and measured after 30 mins by UPLC-MS/MS analysis; assay type: ADME, microsomes, Canis lupus familiaris; conditions: liver microsome S9 fraction, read-out: Stability
[3] = Therapeutic index, ratio EC50 for human MRC5 SV2 cells to EC50 for Trypanosoma cruzi Tulahuen CL2 intracellular amastigotes; assay type: toxicity, cell-based; conditions: read-out: Ratio EC50
[4] = molecular target: T1, Cytochrome P450 (family) (Homo sapiens, UniProt P04798+P05177+P05181+P08684+P10632+P10635+P11509+P11712+P13584+P20813+P20815+P20853+P24462+P24903+P33260+P33261+P51589+P78329+P98187+Q02928+Q08477+Q16678+Q16696+Q5TCH4+Q6VVX0+Q7Z449+Q8TAV3+Q96SQ9+Q9HB55); test: Drug metabolism in human liver microsome S9 fraction assessed as CYP450-mediated metabolism by measuring compound remaining at 5 uM pretreated with NADPH and measured after 15 mins by UPLC-MS/MS analysis; assay type: ADME, microsomes; conditions: liver microsome S9 fraction, read-out: Stability
[5] = test system: Trypanosoma cruzi; test: Antiparasitic activity against Trypanosoma cruzi Tulahuen CL2 intracellular amastigotes expressing beta-galactosidase infected in human MRC5 SV2 cells after 7 days by chlorophenol red beta-D-galactopyranoside-based spectrophotometric analysis; assay type: functional, organism-based; conditions: Tulahuen CL2, MRC-5 SV2, 168 h, read-out: EC50
[6] = test system: UGT; test: Drug metabolism in mouse liver microsome S9 fraction assessed as UGT-mediated metabolism by measuring compound remaining at 5 uM pretreated with UDPGA and measured after 60 mins by UPLC-MS/MS analysis; assay type: ADME, microsomes; conditions: liver microsome S9 fraction, read-out: Stability
[7] = Cytotoxicity against human MRC5 SV2 cells assessed as reduction in cell viability after 3 days resazurin-based fluorimetric assay; conditions: MRC-5 SV2, 72 h
[8] = molecular target: T1, Cytochrome P450 (family); test: Drug metabolism in human liver microsome S9 fraction assessed as CYP450-mediated metabolism by measuring compound remaining at 5 uM pretreated with NADPH and measured after 60 mins by UPLC-MS/MS analysis; assay type: ADME, microsomes; conditions: liver microsome S9 fraction, read-out: Stability
[9] = test system: Trypanosoma cruzi; test: Antiparasitic activity against Trypanosoma cruzi Y strain bloodstream trypomastigotes infected in Swiss Webster mouse assessed as protection against parasite-induced mortality by measuring survivial at 25 mg/kg, po bid via gavage administered for 5 consecutive days starting from day 5 post infection measured at day 40 post infection relative to control; assay type: functional
[10] = Drug metabolism in mouse liver microsome S9 fraction assessed as UGT-mediated metabolism by measuring compound remaining at 5 uM pretreated with UDPGA and measured after 15 mins by UPLC-MS/MS analysis; assay type: ADME, microsomes; conditions: microsomes, 0.25 h, 5 µM
[11] = test system: CYP450; test: Drug metabolism in dog liver microsome S9 fraction assessed as CYP450-mediated metabolism by measuring compound remaining at 5 uM pretreated with NADPH and measured after 15 mins by UPLC-MS/MS analysis; assay type: ADME, microsomes, Canis lupus familiaris; conditions: liver microsome S9 fraction, read-out: Stability
[12] = test system: UGT; test: Drug metabolism in dog liver microsome S9 fraction assessed as UGT-mediated metabolism by measuring compound remaining at 5 uM pretreated with UDPGA and measured after 15 mins by UPLC-MS/MS analysis; assay type: ADME, microsomes, Canis lupus familiaris; conditions: liver microsome S9 fraction, read-out: Stability
[13] = test system: CYP450; test: Drug metabolism in mouse liver microsome S9 fraction assessed as CYP450-mediated metabolism by measuring compound remaining at 5 uM pretreated with NADPH and measured after 15 mins by UPLC-MS/MS analysis; assay type: ADME, microsomes; conditions: liver microsome S9 fraction, read-out: Stability
[14] = Cytotoxicity against Swiss mouse embryonic cardiomyocytes assessed as reduction in cell contractibillity at 2 uM after 24 hrs by light microscopy; conditions: cardiac muscle cell
[15] = test system: Trypanosoma cruzi; test: Antiparasitic activity against Trypanosoma cruzi Y strain bloodstream trypomastigotes infected in Swiss Webster mouse assessed as decrease in parasitemia at 25 mg/kg, po bid via gavage administered for 5 consecutive days measured at day 8 post infection by direct microscopic counting relative to control; assay type: functional; design: scale not given: the % may be the effect or the level left
[16] = test system: UGT; test: Drug metabolism in rat liver microsome S9 fraction assessed as UGT-mediated metabolism by measuring compound remaining at 5 uM pretreated with UDPGA and measured after 60 mins by UPLC-MS/MS analysis; assay type: ADME, microsomes; conditions: liver microsome S9 fraction, read-out: Stability
[17] = Toxicity in Swiss Webster mouse infected with Trypanosoma cruzi Y strain bloodstream trypomastigotes assessed as weight loss at 25 mg/kg, po bid via gavage administered for 5 consecutive days measured at day 40 post infection; assay type: organism-based; conditions: in vivo
[18] = molecular target: T2, UDP-glucuronosyltransferases (UGTs) (family) (Homo sapiens, UniProt O60656+O75310+O75795+P06133+P0DTE4+P0DTE5+P16662+P19224+P22309+P22310+P35503+P35504+P36537+P54855+Q6UWM9+Q9BY64+Q9HAW7+Q9HAW8+Q9HAW9); test: Drug metabolism in human liver microsome S9 fraction assessed as UGT-mediated metabolism by measuring compound remaining at 5 uM pretreated with UDPGA and measured after 30 mins by UPLC-MS/MS analysis; assay type: ADME, microsomes; conditions: liver microsome S9 fraction, read-out: Stability
[19] = test system: UGT; test: Drug metabolism in dog liver microsome S9 fraction assessed as UGT-mediated metabolism by measuring compound remaining at 5 uM pretreated with UDPGA and measured after 30 mins by UPLC-MS/MS analysis; assay type: ADME, microsomes, Canis lupus familiaris; conditions: liver microsome S9 fraction, read-out: Stability
[20] = test system: UGT; test: Drug metabolism in mouse liver microsome S9 fraction assessed as UGT-mediated metabolism by measuring compound remaining at 5 uM pretreated with UDPGA and measured after 30 mins by UPLC-MS/MS analysis; assay type: ADME, microsomes; conditions: liver microsome S9 fraction, read-out: Stability
[21] = test system: CYP450; test: Drug metabolism in rat liver microsome S9 fraction assessed as CYP450-mediated metabolism by measuring compound remaining at 5 uM pretreated with NADPH and measured after 60 mins by UPLC-MS/MS analysis; assay type: ADME, microsomes; conditions: liver microsome S9 fraction, read-out: Stability
[22] = molecular target: T2, UDP-glucuronosyltransferases (UGTs) (family); test: Drug metabolism in human liver microsome S9 fraction assessed as UGT-mediated metabolism by measuring compound remaining at 5 uM pretreated with UDPGA and measured after 60 mins by UPLC-MS/MS analysis; assay type: ADME, microsomes; conditions: liver microsome S9 fraction, read-out: Stability
[23] = test system: CYP450; test: Drug metabolism in mouse liver microsome S9 fraction assessed as CYP450-mediated metabolism by measuring compound remaining at 5 uM pretreated with NADPH and measured after 60 mins by UPLC-MS/MS analysis; assay type: ADME, microsomes; conditions: liver microsome S9 fraction, read-out: Stability
[24] = molecular target: T2, UDP-glucuronosyltransferases (UGTs) (family); test: Drug metabolism in human liver microsome S9 fraction assessed as UGT-mediated metabolism by measuring compound remaining at 5 uM pretreated with UDPGA and measured after 15 mins by UPLC-MS/MS analysis; assay type: ADME, microsomes; conditions: liver microsome S9 fraction, read-out: Stability
[25] = test system: CYP450; test: Drug metabolism in rat liver microsome S9 fraction assessed as CYP450-mediated metabolism by measuring compound remaining at 5 uM pretreated with NADPH and measured after 30 mins by UPLC-MS/MS analysis; assay type: ADME, microsomes; conditions: liver microsome S9 fraction, read-out: Stability
[26] = test system: UGT; test: Drug metabolism in rat liver microsome S9 fraction assessed as UGT-mediated metabolism by measuring compound remaining at 5 uM pretreated with UDPGA and measured after 30 mins by UPLC-MS/MS analysis; assay type: ADME, microsomes; conditions: liver microsome S9 fraction, read-out: Stability
[27] = test system: Trypanosoma cruzi; test: Trypanocidal activity against Trypanosoma cruzi Y strain bloodstream trypomastigotes isolated from infected Swiss mouse […] assessed as parasite death after 24 hrs by neubauer chamber based light microscopy; assay type: functional, organism-based
[28] = test system: CYP450; test: Drug metabolism in dog liver microsome S9 fraction assessed as CYP450-mediated metabolism by measuring compound remaining at 5 uM pretreated with NADPH and measured after 60 mins by UPLC-MS/MS analysis; assay type: ADME, microsomes, Canis lupus familiaris; conditions: liver microsome S9 fraction, read-out: Stability
[29] = Cytotoxicity against Swiss mouse embryonic cardiomyocytes assessed as reduction in cell viability after 24 hrs by prestoblue-staining based colorimetry; conditions: Cardiac muscle cell
[30] = test system: UGT; test: Drug metabolism in dog liver microsome S9 fraction assessed as UGT-mediated metabolism by measuring compound remaining at 5 uM pretreated with UDPGA and measured after 60 mins by UPLC-MS/MS analysis; assay type: ADME, microsomes, Canis lupus familiaris; conditions: liver microsome S9 fraction, read-out: Stability
[31] = test system: UGT; test: Drug metabolism in rat liver microsome S9 fraction assessed as UGT-mediated metabolism by measuring compound remaining at 5 uM pretreated with UDPGA and measured after 15 mins by UPLC-MS/MS analysis; assay type: ADME, microsomes; conditions: liver microsome S9 fraction, read-out: Stability
[32] = test system: Trypanosoma cruzi; test: Antiparasitic activity against Trypanosoma cruzi Y strain bloodstream trypomastigotes infected in Swiss Webster mouse at 25 mg/kg, po bid via gavage administered for 5 consecutive days starting from day 5 post infection followed by cyclophosphamide-induced immunosuppression on day 40 post infection for 4 consecutive days; assay type: functional, organism-based
[33] = test system: CYP450; test: Drug metabolism in mouse liver microsome S9 fraction assessed as CYP450-mediated metabolism by measuring compound remaining at 5 uM pretreated with NADPH and measured after 30 mins by UPLC-MS/MS analysis; assay type: ADME, microsomes; conditions: liver microsome S9 fraction, read-out: Stability
[34] = molecular target: T1, Cytochrome P450 (family); test: Drug metabolism in human liver microsome S9 fraction assessed as CYP450-mediated metabolism by measuring compound remaining at 5 uM pretreated with NADPH and measured after 30 mins by UPLC-MS/MS analysis; assay type: ADME, microsomes; conditions: liver microsome S9 fraction, read-out: Stability
[35] = Drug metabolism in rat liver microsome S9 fraction assessed as CYP450-mediated metabolism by measuring compound remaining at 5 uM pretreated with NADPH and measured after 15 mins by UPLC-MS/MS analysis; assay type: ADME, microsomes; conditions: microsomes, 0.25 h, 5 µM

## Nc1ncnc2c1c(-c1ccc(Cl)cc1)cn2[C@@H]1O[C@H](CO)[C@@H](O)[C@H]1O
[1]
  EC50: 0.029 µM
[2]
  remaining at 0.5 h, 5 µM: 96%
[3]
  selectivity ratio: 57
[4]
  remaining at 0.25 h, 5 µM: 113%
[5]
  EC50: 0.47 µM
[6]
  remaining at 1 h, 5 µM: 106%
[7]
  EC50: 27 µM
[8]
  remaining at 1 h, 5 µM: 86%
[9]
  Activity: 100%
[10]
  Stability: 124%
[11]
  remaining at 0.25 h, 5 µM: 93%
[12]
  remaining at 0.25 h, 5 µM: 84%
[13]
  remaining at 0.25 h, 5 µM: 110%
[14]
  Activity: Toxic
[15]
  Activity: >99.8%
[16]
  remaining at 1 h, 5 µM: 93%
[17]
  Activity: Non-Toxic
[18]
  remaining at 0.5 h, 5 µM: 96%
[19]
  remaining at 0.5 h, 5 µM: 70%
[20]
  remaining at 0.5 h, 5 µM: 110%
[21]
  remaining at 1 h, 5 µM: 106%
[22]
  remaining at 1 h, 5 µM: 91%
[23]
  remaining at 1 h, 5 µM: 102%
[24]
  remaining at 0.25 h, 5 µM: 99%
[25]
  remaining at 0.5 h, 5 µM: 104%
[26]
  remaining at 0.5 h, 5 µM: 93%
[27]
  EC50: > 20 µM
[28]
  remaining at 1 h, 5 µM: 98%
[29]
  EC50: 274 µM
[30]
  remaining at 1 h, 5 µM: 55%
[31]
  remaining at 0.25 h, 5 µM: 100%
[32]
  Activity: inactive
[33]
  remaining at 0.5 h, 5 µM: 95%
[34]
  remaining at 0.5 h, 5 µM: 93%
[35]
  Stability: 122%
